# According to paper PMC8745345, “Hydroxy Pentacyclic Triterpene Acid, Kaempferol, Inhibits the Human 5-Hydroxytryptamine Type 3A Receptor Activity” (International Journal of Molecular Sciences, 2022):
# Where a chain is given by its changes, count along the chain named.
# Experiments:
# Assay type in all cases: cell-based
# [1] = target: T1, human 5-HT3A receptor (wild type) (Homo sapiens, UniProt P46098); assay: Two-electrode voltage clamp, inhibition of serotonin-induced inward current (I5-HT) in Xenopus oocytes expressing wild-type receptor
# T1 construct: expressed in transfected cells; host or cells: Xenopus oocytes injected with in vitro transcribed mRNA
# T1 sequence (P46098 24-478): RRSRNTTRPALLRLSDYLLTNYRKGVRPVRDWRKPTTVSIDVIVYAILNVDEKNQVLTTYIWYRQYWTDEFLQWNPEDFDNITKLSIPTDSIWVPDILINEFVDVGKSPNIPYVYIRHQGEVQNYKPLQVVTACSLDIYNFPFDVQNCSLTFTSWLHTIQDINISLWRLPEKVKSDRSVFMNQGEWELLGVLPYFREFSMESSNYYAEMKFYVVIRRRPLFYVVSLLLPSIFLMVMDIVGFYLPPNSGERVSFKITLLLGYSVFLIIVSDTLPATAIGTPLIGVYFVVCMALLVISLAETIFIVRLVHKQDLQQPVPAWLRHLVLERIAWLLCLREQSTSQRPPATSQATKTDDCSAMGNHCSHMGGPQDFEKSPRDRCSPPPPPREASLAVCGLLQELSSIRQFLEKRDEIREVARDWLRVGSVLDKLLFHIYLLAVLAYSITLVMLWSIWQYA
# Method: (§1) Xenopus oocytes were used in this study as cells for expression of human 5-HT3A receptor. All female frogs used in this experiment were obtained from the Korean Xenopus Resource Center for Research (KXRCR000001). […] Xenopus oocytes were extracted during ice incubation state and isolated as single oocytes using collagenase II (2 mg/mL) in OR2 buffer (82.5 mM NaCl, 2 mM KCl, 1 mM MgCl2, 5 mM HEPES, pH 7.4). Isolated oocytes were incubated with ND96 incubation buffer (96 mM NaCl, 2 mM KCl, 1 mM MgCl2, 1.8 mM CaCl2, 5 mM HEPES, 2.5 mM sodium pyruvate, and 50 mg/mL gentamycin, pH 7.4) at 18 °C until the experiment was performed. Human 5-HT3A receptor mRNA was injected into oocytes using a nanoinjector (Drummond Scientific, Broomall, PA, USA) with a mineral-filled 10 μL microdispenser (VWR, Piscataway, NJ, USA).
# (§2) To confirm the KAE activity on the human 5-HT3A receptor, a two-electrode voltage clamp (OC-725C; Warner Instruments, Hamden, CT, USA) with a Digitata 1550A was used. For the experiment, induced-inward current was converted to digital data with pClamp 10 software (Axon Instruments, Union City, CA, USA). All experiments were performed at room temperature using an oocyte clamp equipped with Digidata. The membrane holding potential was −80 mV.
# (§3) The voltage relationship experiment for confirming the relationship between induce-inward current and voltage, the voltage was varied from −80 mV to +60 mV using a ramp protocol. Each microelectrode was filled with 3 M KCl having a resistance of 0.2 MΩ. Serotonin and KAE applied in the experiment were diluted in ND96 bath solution (96 mM NaCl, 2 mM KCl, 1 mM MgCl2, 1.8 mM CaCl2, and 5 mM HEPES, pH 7.5) to specified concentration. The rate of application of the reagent was 2 mL per minute. All recording data were analyzed using Clampfit 9.0 (Molecular Devices, San Jose, CA, USA).
# All presented experiments were performed at least three times for scientific verification. Data are presented as mean ± S.E.M (standard error of the mean). Induced-inward current data were analyzed with SigmaPlot 10.0 software (Systat Software, Inc., San Jose, CA, USA). To prepare a sigmoid prediction curve for induced peak data, Hill equation reflecting the binding to ligand and macromolecule was obtained with an OriginPro 9.0 software (Origin, MA, USA). The formula used was y = Vmin + (Vmax − Vmin) × [x]^n/([IC50]^n + [x]^n), where Vmin was the minimum current, Vmax was the maximum current, IC50 was the maximum half inhibitory effect percentage of inhibitory activation by KAE, [x] was the concentration of serotonin or KAE, and n was the interaction-coefficient. Statistical significance was considered when p-value was less than or equal to 0.05 (p ≤ 0.05).
# [2] = target: T2, human 5-HT3A receptor I210A mutant (Homo sapiens, UniProt P46098); assay: Two-electrode voltage clamp, I5-HT inhibition, I210A mutant; conditions: −80 mV
# T2 sequence (P46098 24-478): T1 sequence (P46098 24-478)
# Method: Human 5-HT3A receptor cDNA was linearized using restriction enzyme XhoI. In vitro transcription was performed using an mMESSAGE mMACHINE T7 Transcription Kit (Thermo Fisher Scientific, Waltham, MA, USA). The final mRNA product was dissolved in 1X Diethyl Pyrocarbonate (RNase-free water) at a final concentration of 1 μg/μL and kept in a deep-freezer at −80 °C until used.
# Xenopus oocytes were used in this study as cells for expression of human 5-HT3A receptor. All female frogs used in this experiment were obtained from the Korean Xenopus Resource Center for Research (KXRCR000001). Xenopus management followed the guideline of Chonnam National University institution guidelines (CNU IACUC-YB-2016-07, July 2016). Xenopus oocytes were extracted during ice incubation state and isolated as single oocytes using collagenase II (2 mg/mL) in OR2 buffer (82.5 mM NaCl, 2 mM KCl, 1 mM MgCl2, 5 mM HEPES, pH 7.4). […]
# The voltage relationship experiment for confirming the relationship between induce-inward current and voltage, the voltage was varied from −80 mV to +60 mV using a ramp protocol. […] All recording data were analyzed using Clampfit 9.0 (Molecular Devices, San Jose, CA, USA). […]
# All presented experiments were performed at least three times for scientific verification. […] Induced-inward current data were analyzed with SigmaPlot 10.0 software (Systat Software, Inc., San Jose, CA, USA). […]
# [3] = target: T3, human 5-HT3A receptor D177A+F199A double mutant (Homo sapiens, UniProt P46098, D199A/F221A); assay: Two-electrode voltage clamp, I5-HT inhibition, D177A+F199A double mutant
# T3 sequence (P46098 24-478 D199A/F221A): T1 sequence (P46098 24-478) with D176A, F198A
# Method: as §1, §2, §3
# Point mutation was performed using Pfu DNA polymerase (Quikchange II Site-Directed Mutagenesis Kit). Chimeric primer design for PCR was performed under appropriate primer design guidelines. To remove methylated cDNA, Dpn I was used. Transformation of the mutated DNA used pGEM vector. pDNA was purified using a miniprep protocol. […]
# [4] = read-out: Emax of serotonin concentration-response
structure (smiles),measurement,setting,value
"O=c1c(O)c(-c2ccc(O)cc2)oc2cc(O)cc(O)c12 [KAE, kaempferol]",Maximum-inhibitory percentage (Imax),[1],79.3 ± 4.5%
same,Vmax,[1],79.3 ± 4.6%
same,efficacy of antagonist against I5-HT(100uM) of 5-HT3A,[1],79.3 ± 4.6%
same,Hill coefficient,"[1]; Hill equation fit, Figure 1D, serotonin 100 μM, −80 mV",0.9 ± 0.1
same,competitive or non-competitive manner of inhibition,"[1]; KAE fixed, serotonin 1–300 μM, Figure 2B",non-competitive manner
same,IC50,"[1]; Wild type, −80 mV, Table 1",23.4 ± 8.3 µM
same,n (Hill coefficient),"[1]; Wild type, −80 mV, Table 1",1.2 ± 0.3
same,Emax at 10 µM,[1]; [4],79.3 ± 4.8%
same,Emax at 100 µM,[1]; [4],37.7 ± 1.2%
same,inhibitory manner (reversibility),"[1]; serotonin and KAE 100 μM, Figure 1B",reversible inhibitory manner
same,voltage dependence of inhibition,"[1]; voltage ramp −80 to +60 mV, KAE 10 and 100 μM, serotonin 100 μM",voltage-independent manner
same,IC50,[2],35.4 ± 9.7 µM
same,n (Hill coefficient),[2],1.8 ± 0.5
same,n (Hill coefficient),"[3]; D177A+F199A, −80 mV",1.3 ± 0.4
same,IC50,"[3]; D177A+F199A, −80 mV, Table 1",42.9 ± 10.2 µM
same,Vmax,"[3]; D177A+F199A, −80 mV, Table 1",11.9 ± 1.2%
same,Imax,"[3]; D177 and F199 double-mutant, Figure 5D",11.9 ± 1.2%
